Laboratory results from ChEMBL document CHEMBL4373747 (ACS Med Chem Lett, 2020).

Key:
MV4-11 [1] = assay: Induction of apoptosis in human MV4-11 cells assessed as early apoptotic cells at 1 uM incubated for 18 hrs by annexin V FITC and PI based flow cytometry (reference value: 19.46 to 22.17 %); format: functional
MV4-11 [2] = assay: Cytotoxicity against human MV4-11 cells assessed as reduction in cell viability incubated for 72 hrs by cell-titer blue assay; format: functional, cell-based; conditions: MV4-11, 72 h
[3] = biological target: T1, Protein deacetylase HDAC6 (Homo sapiens) (UniProt Q9UBN7); assay: Inhibition of HDAC6 in human MV4-11 cells assessed as increase in acetylated alpha-tubulin incubated for 6 hrs by Western blot analysis; format: cell-based
T1 sequence (whole entry): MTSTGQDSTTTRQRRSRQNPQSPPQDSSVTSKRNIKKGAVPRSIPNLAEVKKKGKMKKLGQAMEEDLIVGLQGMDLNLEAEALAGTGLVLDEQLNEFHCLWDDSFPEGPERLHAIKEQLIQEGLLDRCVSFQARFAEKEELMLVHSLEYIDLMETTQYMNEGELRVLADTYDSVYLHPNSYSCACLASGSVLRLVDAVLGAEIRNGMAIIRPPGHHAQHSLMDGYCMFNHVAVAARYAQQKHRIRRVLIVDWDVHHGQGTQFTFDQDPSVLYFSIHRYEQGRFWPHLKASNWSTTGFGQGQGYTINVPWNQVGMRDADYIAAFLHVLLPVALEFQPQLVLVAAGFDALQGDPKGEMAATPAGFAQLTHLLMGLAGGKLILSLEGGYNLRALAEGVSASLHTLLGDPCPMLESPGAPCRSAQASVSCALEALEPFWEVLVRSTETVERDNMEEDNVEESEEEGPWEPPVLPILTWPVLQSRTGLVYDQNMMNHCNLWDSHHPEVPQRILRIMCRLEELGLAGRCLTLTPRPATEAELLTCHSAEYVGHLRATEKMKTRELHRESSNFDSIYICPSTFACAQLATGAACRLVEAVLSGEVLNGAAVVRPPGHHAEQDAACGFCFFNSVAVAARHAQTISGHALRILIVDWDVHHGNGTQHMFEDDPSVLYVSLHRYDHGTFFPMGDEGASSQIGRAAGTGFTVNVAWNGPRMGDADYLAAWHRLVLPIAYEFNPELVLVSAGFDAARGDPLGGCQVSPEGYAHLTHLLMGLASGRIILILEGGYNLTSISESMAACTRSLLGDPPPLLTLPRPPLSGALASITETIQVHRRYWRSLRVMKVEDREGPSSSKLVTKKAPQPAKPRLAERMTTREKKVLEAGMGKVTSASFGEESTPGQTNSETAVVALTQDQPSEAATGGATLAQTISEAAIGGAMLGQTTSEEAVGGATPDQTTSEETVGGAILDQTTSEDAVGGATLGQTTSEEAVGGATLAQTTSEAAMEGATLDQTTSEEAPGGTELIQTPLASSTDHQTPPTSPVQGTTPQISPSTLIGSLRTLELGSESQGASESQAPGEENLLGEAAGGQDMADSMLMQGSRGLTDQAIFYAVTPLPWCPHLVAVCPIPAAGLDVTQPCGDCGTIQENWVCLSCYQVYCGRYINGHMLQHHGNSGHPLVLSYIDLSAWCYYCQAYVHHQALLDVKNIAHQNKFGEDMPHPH

MV4-11 [4] = assay: Induction of apoptosis in human MV4-11 cells assessed as viable cells at 2 uM incubated for 18 hrs by annexin V FITC and PI based flow cytometry (reference value: 53.01 to 53.07 %); format: functional; conditions: Homo sapiens, MV4-11, 18 h; read-out: Activity
MV4-11 [5] = assay: Induction of apoptosis in human MV4-11 cells assessed as early apoptotic cells at 2 uM incubated for 18 hrs by annexin V FITC and PI based flow cytometry (reference value: 19.46 to 22.17 %); format: functional

SMILES: CC(C)(C)c1ccc(C(=O)Nc2ccc(C(=O)NO)cc2)cc1
- Activity (MV4-11 [1]): 29.78%
- IC50 (MV4-11 [2]): 576 nM
- inhibition [3]: Dose-dependent effect
- viability at 2 µM (MV4-11 [4]): 22.1%
- Activity (MV4-11 [5]): 27.83%
